Laboratory results taken from US20240069408A1, “LIGHT ABSORPTION MATERIAL, RECORDING MEDIUM, INFORMATION RECORDING METHOD, AND INFORMATION READING METHOD” (Panasonic Intellectual Property Management Co., Ltd., priority 2021, published 2024).

What was measured:
[1] = Measurement of two-photon absorption cross-section (z-scan technique, 405 nm); format: physicochemical; conditions: for Two-photon absorption cross-section σ: light of wavelength 405 nm, Ti:sapphire pulsed laser second harmonic, pulse width 80 fs, 1 kHz; for Ratio σ/ε: two-photon absorption cross-section σ (GM) to molar absorption coefficient ε at 405 nm
Excerpt: The two-photon absorption cross-section of the compound A irradiated with light having a wavelength of 405 nm may be greater than or equal to 1 GM, may be greater than or equal to 10 GM, may be greater than or equal to 30 GM, may be greater than or equal to 50 GM, may be greater than or equal to 70 GM, may be greater than or equal to 100 GM, may be greater than or equal to 200 GM, or may be greater than or equal to 300 GM. The upper limit of the two-photon absorption cross-section of the compound A is not particularly limited, and is, for example, 10000 GM. For example, the two-photon absorption cross-section may be measured by the z-scan technique described in J. Opt. Soc. Am. B, 2003, Vol. 20, p. 529. The z-scan technique is widely used as a method for measuring non-linear optical constants. In the z-scan technique, a measurement sample is moved along the beam irradiation direction near the focal point at which the laser beam is focused. During this process, the change in the amount of light transmitted through the measurement sample is recorded. In the z-scan technique, the power density of incident light changes depending on the location of the measurement sample. Thus, when the measurement sample absorbs light non-linearly, the amount of transmitted light is attenuated when the measurement sample is located near the focal point of the laser beam. The two-photon absorption cross-section may be calculated by fitting the changes in the amount of transmitted light based on the theoretical curve predicted from conditions, such as the intensity of the incident light, the thickness of the measurement sample, and the concentration of the compound A in the measurement sample.
The two-photon absorption cross-section of the compounds of Examples and Comparative Examples was measured with respect to light having a wavelength of 405 nm. The measurement of the two-photon absorption cross-section was performed using the z-scan technique described in J. Opt. Soc. Am. B, 2003, Vol. 20, p. 529. The light source used for the measurement of the two-photon absorption cross-section was a Ti:sapphire pulsed laser. Specifically, second harmonic waves from the Ti:sapphire pulsed laser were applied to the sample. The pulse width of the laser was 80 fs. The repetition frequency of the laser was 1 kHz. The average power of the laser was changed in the range of greater than or equal to 0.01 mW and less than or equal to 0.08 mW. […] The full width at half maximum of the light from the laser was 4 nm.

[2] = Measurement of molar absorption coefficient (JIS K0115: 2004, 405 nm); format: physicochemical; conditions: absorbance at 405 nm; compound concentration 500 mmol/L
Excerpt: The molar absorption coefficient of the compound A with respect to light having a wavelength of 405 nm may be less than or equal to 50 mol^−1·L·cm^−1, may be less than or equal to 10 mol^−1·L·cm^−1, may be less than or equal to 5 mol^−1·L·c^−1, may be less than or equal to 2 mol^−1·L·cm^−1, or may be less than or equal to 1 mol^−1·L·cm^−1. The lower limit of the molar absorption coefficient of the compound A is not particularly limited, and is, for example, 0.01 mol^−1·L·cm^−1. The molar absorption coefficient may be measured by, for example, a method in accordance with the manual specified in Japanese Industrial Standards (JIS) K0115: 2004. […] In the measurement of the molar absorption coefficient, furthermore, the concentration of the compound A is adjusted to 500 mmol/L. This concentration is very high compared to the concentration in the measurement test of the molar absorption coefficient of an optical absorption peak. The molar absorption coefficient may be used as an index of one-photon absorption.
The compounds of Examples and Comparative Examples were analyzed by a method in accordance with JIS K0115: 2004 to measure the molar absorption coefficient. Specifically, first, a measurement sample was provided in which the concentration of the compound had been controlled to 500 mmol/L. An absorption spectrum of the measurement sample was measured. From the spectrum obtained, the absorbance at a wavelength of 405 nm was read. The molar absorption coefficient was calculated based on the concentration of the compound in the measurement sample and the optical path length of the cell used for the measurement.

SMILES	Two-photon absorption cross-section σ [1]	Ratio σ/ε [1]	Molar absorption coefficient ε [2] [L/mol/cm]
COc1cc(Br)c(-c2cc(OC)c(OC)cc2-c2cc(OC)c(OC)cc2-c2cc(OC)c(OC)cc2-c2cc(OC)c(OC)cc2-c2cc(OC)c(OC)cc2-c2cc(OC)c(OC)cc2-c2cc(OC)c(OC)cc2-c2cc(OC)c(OC)cc2-c2cc(OC)c(OC)cc2-c2cc(OC)c(OC)cc2-c2cc(OC)c(OC)cc2-c2cc(OC)c(OC)cc2-c2cc(OC)c(OC)cc2Br)cc1OC [Ex. 4]	82 GM	167	0.49
COc1cc(Br)c(-c2cc(OC)c(OC)cc2-c2cc(OC)c(OC)cc2-c2cc(OC)c(OC)cc2-c2cc(OC)c(OC)cc2-c2cc(OC)c(OC)cc2-c2cc(OC)c(OC)cc2-c2cc(OC)c(OC)cc2-c2cc(OC)c(OC)cc2-c2cc(OC)c(OC)cc2-c2cc(OC)c(OC)cc2-c2cc(OC)c(OC)cc2Br)cc1OC [Ex. 3]	71 GM	142	0.50
COc1cc(Br)c(-c2cc(OC)c(OC)cc2-c2cc(OC)c(OC)cc2Br)cc1OC [OP3Br]	could not be measured		

Next, values leading:

Two-photon absorption cross-section σ [1]	Ratio σ/ε [1]	Molar absorption coefficient ε [2] [L/mol/cm]	SMILES
51 GM	38	1.34	COc1cc(Br)c(-c2cc(OC)c(OC)cc2-c2cc(OC)c(OC)cc2-c2cc(OC)c(OC)cc2Br)cc1OC [Ex. 1]
336 GM	223	1.51	COc1cc(Br)c(-c2cc(OC)c(OC)cc2-c2cc(OC)c(OC)cc2-c2cc(OC)c(OC)cc2-c2cc(OC)c(OC)cc2-c2cc(OC)c(OC)cc2-c2cc(OC)c(OC)cc2-c2cc(OC)c(OC)cc2-c2cc(OC)c(OC)cc2-c2cc(OC)c(OC)cc2-c2cc(OC)c(OC)cc2-c2cc(OC)c(OC)cc2-c2cc(OC)c(OC)cc2-c2cc(OC)c(OC)cc2-c2cc(OC)c(OC)cc2-c2cc(OC)c(OC)cc2Br)cc1OC [Ex. 5]
73 GM	72	1.01	COc1cc(Br)c(-c2cc(OC)c(OC)cc2-c2cc(OC)c(OC)cc2-c2cc(OC)c(OC)cc2-c2cc(OC)c(OC)cc2-c2cc(OC)c(OC)cc2-c2cc(OC)c(OC)cc2-c2cc(OC)c(OC)cc2Br)cc1OC [Ex. 2]
380 GM	5	70	OC(C#Cc1ccc(N(c2ccc(C#CC(O)(c3ccccc3)c3ccccc3)cc2)c2ccc(C#CC(O)(c3ccccc3)c3ccccc3)cc2)cc1)(c1ccccc1)c1ccccc1 [compound 2, reference compound]
23000 GM	10	2730	C(#Cc1c(C#Cc2ccccc2)c(C#Cc2ccccc2)c(C#Cc2ccccc2)c(C#Cc2ccccc2)c1C#Cc1ccccc1)c1ccccc1 [compound 1, hexakis(phenylethynyl)benzene, reference compound]
